Data taken from article PMC8401933 (Molecules, 2021).

Assays:
CAMK1D = molecular target: T1, CAMK1D (Homo sapiens, UniProt Q8IU85); test: KINOMEscan binding; conditions: read-out: Percent Control
T1 construct: purchased Eurofins DiscoverX KINOMEscan

CAMK4 = molecular target: T2, CAMK4 (Homo sapiens, UniProt Q16566); test: KINOMEscan binding; conditions: read-out: Percent Control
T2 construct: purchased Eurofins DiscoverX KINOMEscan

WNK3 = molecular target: T3, WNK3 (Homo sapiens, UniProt Q9BYP7); test: KINOMEscan binding; conditions: read-out: Percent Control
T3 construct: purchased Eurofins DiscoverX KINOMEscan

PIK3CD = molecular target: T4, PIK3CD (Homo sapiens, UniProt O00329); test: KINOMEscan binding; conditions: read-out: Percent Control
T4 construct: purchased Eurofins DiscoverX KINOMEscan

CDC2L5 = molecular target: T5, CDC2L5 (Homo sapiens, UniProt Q14004); test: KINOMEscan binding; conditions: read-out: Percent Control
T5 construct: purchased Eurofins DiscoverX KINOMEscan
Method: (§1) This platform contains 468 recombinant human kinases (more than 80% coverage) in which 56 disease-relevant mutants are included. The recombinant DNA-tagged kinases were incubated with the probe ligands immobilized to a solid support, and then the level of the captured kinases on the solid support was measured using quantitative PCR.

PRP4 = molecular target: T6, PRP4 (Homo sapiens, UniProt Q13523); test: KINOMEscan binding; conditions: read-out: Percent Control
T6 construct: purchased Eurofins DiscoverX KINOMEscan
Method: as §1

MKK7 = molecular target: T7, MKK7 (Homo sapiens, UniProt O14733); test: KINOMEscan binding; conditions: read-out: Percent Control
T7 construct: purchased Eurofins DiscoverX KINOMEscan

[1] = oral, rat model; cited from earlier work
RET = molecular target: T8, RET (Homo sapiens, UniProt P07949); test: KINOMEscan binding; conditions: read-out: Percent Control
T8 construct: purchased Eurofins DiscoverX KINOMEscan

PKAC-alpha = molecular target: T9, PKAC-alpha (Homo sapiens, UniProt P17612); test: KINOMEscan binding; conditions: read-out: Percent Control
T9 construct: purchased Eurofins DiscoverX KINOMEscan

PRKG2 = molecular target: T10, PRKG2 (Homo sapiens, UniProt Q13237); test: KINOMEscan binding; conditions: read-out: Percent Control
T10 construct: purchased Eurofins DiscoverX KINOMEscan

TGFBR1 = molecular target: T11, TGFBR1 (Homo sapiens, UniProt P36897); test: KINOMEscan binding; conditions: read-out: Percent Control
T11 construct: purchased Eurofins DiscoverX KINOMEscan
T11 sequence (P36897 34-503): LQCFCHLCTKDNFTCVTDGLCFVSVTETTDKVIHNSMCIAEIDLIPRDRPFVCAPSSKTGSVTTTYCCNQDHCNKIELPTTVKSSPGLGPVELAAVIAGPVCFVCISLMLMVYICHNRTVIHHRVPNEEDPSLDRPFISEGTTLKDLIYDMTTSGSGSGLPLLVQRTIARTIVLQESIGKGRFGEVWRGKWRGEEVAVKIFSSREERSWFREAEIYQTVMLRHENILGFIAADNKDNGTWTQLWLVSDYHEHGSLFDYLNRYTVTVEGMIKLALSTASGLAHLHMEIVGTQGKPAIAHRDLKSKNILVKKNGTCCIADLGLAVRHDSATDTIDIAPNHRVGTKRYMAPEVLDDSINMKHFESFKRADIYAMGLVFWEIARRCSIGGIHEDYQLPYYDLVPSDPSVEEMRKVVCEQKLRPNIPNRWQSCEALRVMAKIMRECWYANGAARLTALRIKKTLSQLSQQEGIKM

CDK2 = molecular target: T12, CDK2 (Homo sapiens, UniProt P24941); test: KINOMEscan binding; conditions: read-out: Percent Control
T12 construct: purchased Eurofins DiscoverX KINOMEscan

MST1 = molecular target: T13, MST1 (Homo sapiens, UniProt Q13043); test: KINOMEscan binding; conditions: read-out: Percent Control
T13 construct: purchased Eurofins DiscoverX KINOMEscan

RIPK5 = molecular target: T14, RIPK5 (Homo sapiens, UniProt Q6XUX3); test: KINOMEscan binding; conditions: read-out: Percent Control
T14 construct: purchased Eurofins DiscoverX KINOMEscan

MEK5 = molecular target: T15, MEK5 (Homo sapiens, UniProt Q13163); test: KINOMEscan binding; conditions: read-out: Percent Control
T15 construct: purchased Eurofins DiscoverX KINOMEscan
T15 sequence (Q13163 whole entry): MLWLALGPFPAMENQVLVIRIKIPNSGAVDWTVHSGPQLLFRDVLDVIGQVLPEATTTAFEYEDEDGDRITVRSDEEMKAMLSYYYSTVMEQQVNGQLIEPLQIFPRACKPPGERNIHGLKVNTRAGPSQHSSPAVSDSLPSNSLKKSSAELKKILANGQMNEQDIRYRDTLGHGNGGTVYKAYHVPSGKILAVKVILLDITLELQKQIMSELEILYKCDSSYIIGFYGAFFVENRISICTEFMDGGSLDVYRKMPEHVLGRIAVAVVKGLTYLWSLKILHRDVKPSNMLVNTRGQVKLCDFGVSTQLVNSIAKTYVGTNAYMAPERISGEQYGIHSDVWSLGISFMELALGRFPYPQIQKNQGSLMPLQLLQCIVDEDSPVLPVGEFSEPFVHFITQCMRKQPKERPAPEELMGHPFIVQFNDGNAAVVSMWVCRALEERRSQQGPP

FGFR3 = molecular target: T16, FGFR3 (Homo sapiens, UniProt P22607); test: KINOMEscan binding; conditions: read-out: Percent Control
T16 construct: purchased Eurofins DiscoverX KINOMEscan

CAMK2G = molecular target: T17, CAMK2G (Homo sapiens, UniProt Q13555); test: KINOMEscan binding; conditions: read-out: Percent Control
T17 construct: purchased Eurofins DiscoverX KINOMEscan

CSNK2A1 = molecular target: T18, CSNK2A1 (Homo sapiens, UniProt P68400); test: KINOMEscan binding
T18 construct: purchased Eurofins DiscoverX KINOMEscan
T18 sequence (P68400 whole entry): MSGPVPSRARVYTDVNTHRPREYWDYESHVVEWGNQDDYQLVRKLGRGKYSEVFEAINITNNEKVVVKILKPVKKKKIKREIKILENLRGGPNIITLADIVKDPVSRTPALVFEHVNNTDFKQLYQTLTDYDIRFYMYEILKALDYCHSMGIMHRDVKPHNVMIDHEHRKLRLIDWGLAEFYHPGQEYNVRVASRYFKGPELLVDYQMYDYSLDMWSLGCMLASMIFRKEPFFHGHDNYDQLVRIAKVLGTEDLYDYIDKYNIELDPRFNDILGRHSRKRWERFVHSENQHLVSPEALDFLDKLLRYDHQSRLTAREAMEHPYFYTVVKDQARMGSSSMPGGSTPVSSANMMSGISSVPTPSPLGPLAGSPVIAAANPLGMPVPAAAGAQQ

MAP3K4 = molecular target: T19, MAP3K4 (Homo sapiens, UniProt Q9Y6R4); test: KINOMEscan binding; conditions: read-out: Percent Control
T19 construct: purchased Eurofins DiscoverX KINOMEscan

PLK2 = molecular target: T20, PLK2 (Homo sapiens, UniProt Q9NYY3); test: KINOMEscan binding; conditions: read-out: Percent Control
T20 construct: purchased Eurofins DiscoverX KINOMEscan

FLT3(D835Y) = molecular target: T21, FLT3(D835Y) (Homo sapiens, UniProt P36888, D835Y); test: KINOMEscan binding; conditions: read-out: Percent Control
T21 construct: purchased Eurofins DiscoverX KINOMEscan

MARK1 = molecular target: T22, MARK1 (Homo sapiens, UniProt Q9P0L2); test: KINOMEscan binding; conditions: read-out: Percent Control
T22 construct: purchased Eurofins DiscoverX KINOMEscan
T22 sequence (Q9P0L2 whole entry): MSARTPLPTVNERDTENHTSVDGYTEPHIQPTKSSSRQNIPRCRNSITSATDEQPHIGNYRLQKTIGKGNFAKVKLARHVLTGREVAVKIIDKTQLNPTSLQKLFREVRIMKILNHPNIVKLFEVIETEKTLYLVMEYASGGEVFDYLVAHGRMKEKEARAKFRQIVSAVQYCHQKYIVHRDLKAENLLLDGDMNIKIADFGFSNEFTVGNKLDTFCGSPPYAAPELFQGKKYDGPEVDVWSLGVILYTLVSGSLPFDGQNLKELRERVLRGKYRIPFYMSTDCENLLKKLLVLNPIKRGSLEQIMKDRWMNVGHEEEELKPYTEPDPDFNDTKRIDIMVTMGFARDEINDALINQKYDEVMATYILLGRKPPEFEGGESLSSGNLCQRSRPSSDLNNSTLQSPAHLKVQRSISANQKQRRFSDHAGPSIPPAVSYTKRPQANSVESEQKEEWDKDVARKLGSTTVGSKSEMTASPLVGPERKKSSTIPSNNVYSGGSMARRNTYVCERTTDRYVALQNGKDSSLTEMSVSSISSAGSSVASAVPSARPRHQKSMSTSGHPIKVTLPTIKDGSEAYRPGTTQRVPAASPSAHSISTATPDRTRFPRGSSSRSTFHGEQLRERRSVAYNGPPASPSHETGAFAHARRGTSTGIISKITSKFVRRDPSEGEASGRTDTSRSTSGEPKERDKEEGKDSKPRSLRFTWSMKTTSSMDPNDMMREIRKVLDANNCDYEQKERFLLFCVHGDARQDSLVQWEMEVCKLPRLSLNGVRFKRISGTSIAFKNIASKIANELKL

ACVR2A = molecular target: T23, ACVR2A (Homo sapiens, UniProt P27037); test: KINOMEscan binding; conditions: read-out: Percent Control
T23 construct: purchased Eurofins DiscoverX KINOMEscan
T23 sequence (P27037 20-513): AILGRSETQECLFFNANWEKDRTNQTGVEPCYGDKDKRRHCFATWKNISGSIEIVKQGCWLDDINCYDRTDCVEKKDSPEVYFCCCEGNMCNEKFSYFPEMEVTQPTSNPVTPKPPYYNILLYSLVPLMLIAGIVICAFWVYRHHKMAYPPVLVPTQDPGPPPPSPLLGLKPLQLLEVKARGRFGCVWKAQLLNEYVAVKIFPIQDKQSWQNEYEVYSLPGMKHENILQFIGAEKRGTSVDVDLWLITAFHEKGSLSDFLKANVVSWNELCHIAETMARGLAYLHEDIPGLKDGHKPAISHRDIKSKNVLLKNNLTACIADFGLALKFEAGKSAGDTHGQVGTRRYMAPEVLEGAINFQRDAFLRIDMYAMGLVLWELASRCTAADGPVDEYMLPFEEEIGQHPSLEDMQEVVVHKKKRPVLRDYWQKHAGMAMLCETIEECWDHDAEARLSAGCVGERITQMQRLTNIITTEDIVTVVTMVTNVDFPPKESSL

FLT3(N841I) = molecular target: T24, FLT3(N841I) (Homo sapiens, UniProt P36888, N841I); test: KINOMEscan binding; conditions: read-out: Percent Control
T24 construct: purchased Eurofins DiscoverX KINOMEscan

FYN = molecular target: T25, FYN (Homo sapiens, UniProt P06241); test: KINOMEscan binding; conditions: read-out: Percent Control
T25 construct: purchased Eurofins DiscoverX KINOMEscan

ALK(L1196M) = molecular target: T26, ALK(L1196M) (Homo sapiens, UniProt Q9UM73, L1196M); test: KINOMEscan binding; conditions: read-out: Percent Control
T26 construct: purchased Eurofins DiscoverX KINOMEscan

DYRK1A = molecular target: T27, DYRK1A (Homo sapiens, UniProt Q13627); test: KINOMEscan binding; conditions: read-out: Percent Control
T27 construct: purchased Eurofins DiscoverX KINOMEscan

WEE2 = molecular target: T28, WEE2 (Homo sapiens, UniProt P0C1S8); test: KINOMEscan binding; conditions: read-out: Percent Control
T28 construct: purchased Eurofins DiscoverX KINOMEscan

TSSK1B = molecular target: T29, TSSK1B (Homo sapiens, UniProt Q9BXA7); test: KINOMEscan binding; conditions: read-out: Percent Control
T29 construct: purchased Eurofins DiscoverX KINOMEscan
T29 sequence (Q9BXA7 whole entry): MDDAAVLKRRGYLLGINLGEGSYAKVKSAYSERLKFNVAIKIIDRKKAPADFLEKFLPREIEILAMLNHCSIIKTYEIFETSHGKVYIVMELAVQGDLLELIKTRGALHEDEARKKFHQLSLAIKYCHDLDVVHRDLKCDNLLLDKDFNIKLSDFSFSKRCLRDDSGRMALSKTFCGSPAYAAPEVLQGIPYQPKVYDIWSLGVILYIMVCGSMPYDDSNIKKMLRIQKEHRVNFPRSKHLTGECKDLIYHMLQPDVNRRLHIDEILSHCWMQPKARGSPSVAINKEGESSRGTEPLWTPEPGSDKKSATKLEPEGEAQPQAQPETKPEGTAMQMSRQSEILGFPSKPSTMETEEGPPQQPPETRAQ

CLK1 = molecular target: T30, CLK1 (Homo sapiens, UniProt P49759); test: KINOMEscan binding; conditions: read-out: Percent Control
T30 construct: purchased Eurofins DiscoverX KINOMEscan

[2] = molecular target: T31, RPS6KA5(Kin.Dom.2-C-terminal) (Homo sapiens, UniProt O75582); test: KINOMEscan binding; conditions: read-out: Percent Control
T31 construct: RPS6KA5(Kin.Dom.2-C-terminal); purchased Eurofins DiscoverX KINOMEscan
T31 sequence (O75582 388-802 limits assumed): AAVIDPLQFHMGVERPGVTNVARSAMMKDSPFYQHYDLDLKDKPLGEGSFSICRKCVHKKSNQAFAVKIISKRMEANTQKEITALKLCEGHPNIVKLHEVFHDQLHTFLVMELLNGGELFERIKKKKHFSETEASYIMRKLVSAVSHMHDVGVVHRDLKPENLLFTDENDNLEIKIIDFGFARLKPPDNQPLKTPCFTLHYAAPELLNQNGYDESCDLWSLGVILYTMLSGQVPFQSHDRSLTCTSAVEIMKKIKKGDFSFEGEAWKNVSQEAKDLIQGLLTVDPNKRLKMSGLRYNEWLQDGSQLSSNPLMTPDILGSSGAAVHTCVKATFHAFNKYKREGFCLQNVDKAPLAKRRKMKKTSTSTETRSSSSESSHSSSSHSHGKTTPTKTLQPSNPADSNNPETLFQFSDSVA

GRK7 = molecular target: T32, GRK7 (Homo sapiens, UniProt Q8WTQ7); test: KINOMEscan binding; conditions: read-out: Percent Control
T32 construct: purchased Eurofins DiscoverX KINOMEscan

GCN2(Kin.Dom.2,S808G) = molecular target: T33, GCN2(Kin.Dom.2,S808G) (Homo sapiens, UniProt Q9P2K8, S808G); test: KINOMEscan binding; conditions: read-out: Percent Control
T33 construct: GCN2(Kin.Dom.2,S808G); purchased Eurofins DiscoverX KINOMEscan
T33 sequence (Q9P2K8 590-1001 S808G limits assumed): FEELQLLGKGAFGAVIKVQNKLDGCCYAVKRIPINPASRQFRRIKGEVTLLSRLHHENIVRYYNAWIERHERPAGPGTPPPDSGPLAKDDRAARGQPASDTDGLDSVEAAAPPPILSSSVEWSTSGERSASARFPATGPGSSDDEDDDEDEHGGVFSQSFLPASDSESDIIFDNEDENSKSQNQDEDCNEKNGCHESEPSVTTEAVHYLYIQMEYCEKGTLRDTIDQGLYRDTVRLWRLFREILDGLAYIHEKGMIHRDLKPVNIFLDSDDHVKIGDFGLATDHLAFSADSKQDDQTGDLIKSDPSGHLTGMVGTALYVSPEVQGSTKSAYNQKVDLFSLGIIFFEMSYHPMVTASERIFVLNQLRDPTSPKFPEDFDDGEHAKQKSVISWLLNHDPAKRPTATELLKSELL

LZK = molecular target: T34, LZK (Homo sapiens, UniProt O43283); test: KINOMEscan binding; conditions: read-out: Percent Control
T34 construct: purchased Eurofins DiscoverX KINOMEscan

HCK = molecular target: T35, HCK (Homo sapiens, UniProt P08631); test: KINOMEscan binding; conditions: read-out: Percent Control
T35 construct: purchased Eurofins DiscoverX KINOMEscan

YANK3 = molecular target: T36, YANK3 (Homo sapiens, UniProt Q86UX6); test: KINOMEscan binding; conditions: read-out: Percent Control
T36 construct: purchased Eurofins DiscoverX KINOMEscan
T36 sequence (Q86UX6 whole entry): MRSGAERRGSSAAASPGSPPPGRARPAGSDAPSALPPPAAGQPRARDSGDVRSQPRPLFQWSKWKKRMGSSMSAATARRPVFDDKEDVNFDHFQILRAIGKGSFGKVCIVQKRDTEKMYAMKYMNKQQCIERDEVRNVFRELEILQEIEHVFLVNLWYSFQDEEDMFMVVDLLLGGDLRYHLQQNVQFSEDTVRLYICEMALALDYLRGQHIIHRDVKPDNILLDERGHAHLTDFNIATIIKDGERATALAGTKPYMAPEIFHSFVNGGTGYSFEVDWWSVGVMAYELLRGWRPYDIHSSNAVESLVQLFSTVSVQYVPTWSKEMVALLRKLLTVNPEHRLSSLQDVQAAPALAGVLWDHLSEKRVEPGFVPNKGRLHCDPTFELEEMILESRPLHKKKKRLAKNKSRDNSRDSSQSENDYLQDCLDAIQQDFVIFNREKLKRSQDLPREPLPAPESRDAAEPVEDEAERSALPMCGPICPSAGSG

ERBB2 = molecular target: T37, ERBB2 (Homo sapiens, UniProt P04626); test: KINOMEscan binding; conditions: read-out: Percent Control
T37 construct: purchased Eurofins DiscoverX KINOMEscan

ERK4 = molecular target: T38, ERK4 (Homo sapiens, UniProt P31152); test: KINOMEscan binding; conditions: read-out: Percent Control
T38 construct: purchased Eurofins DiscoverX KINOMEscan

CSNK1A1 = molecular target: T39, CSNK1A1 (Homo sapiens, UniProt P48729); test: KINOMEscan binding; conditions: read-out: Percent Control
T39 construct: purchased Eurofins DiscoverX KINOMEscan

NEK5 = molecular target: T40, NEK5 (Homo sapiens, UniProt Q6P3R8); test: KINOMEscan binding; conditions: read-out: Percent Control
T40 construct: purchased Eurofins DiscoverX KINOMEscan
T40 sequence (Q6P3R8 whole entry): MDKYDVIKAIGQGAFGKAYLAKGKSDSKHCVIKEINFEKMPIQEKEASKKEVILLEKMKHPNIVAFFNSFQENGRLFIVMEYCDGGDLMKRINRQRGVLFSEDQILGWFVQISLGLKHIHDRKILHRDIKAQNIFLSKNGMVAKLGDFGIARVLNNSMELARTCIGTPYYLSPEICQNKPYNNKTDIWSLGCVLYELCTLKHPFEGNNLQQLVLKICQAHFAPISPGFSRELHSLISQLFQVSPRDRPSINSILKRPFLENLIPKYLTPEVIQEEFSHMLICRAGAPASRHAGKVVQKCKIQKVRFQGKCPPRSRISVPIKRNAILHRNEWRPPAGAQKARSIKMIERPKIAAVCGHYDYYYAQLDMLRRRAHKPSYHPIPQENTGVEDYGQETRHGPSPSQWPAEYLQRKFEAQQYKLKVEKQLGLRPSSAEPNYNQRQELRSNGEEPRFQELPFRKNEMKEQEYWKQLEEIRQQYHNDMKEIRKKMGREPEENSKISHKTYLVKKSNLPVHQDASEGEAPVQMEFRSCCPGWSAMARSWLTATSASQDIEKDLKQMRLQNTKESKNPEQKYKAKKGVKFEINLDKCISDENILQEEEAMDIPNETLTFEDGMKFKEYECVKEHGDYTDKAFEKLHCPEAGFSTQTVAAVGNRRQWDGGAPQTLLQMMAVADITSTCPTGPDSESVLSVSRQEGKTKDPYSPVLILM

CC(C)NC(=O)COc1cccc(-c2nc(Nc3ccc4[nH]ncc4c3)c3ccccc3n2)c1 [KD025, 2-(3-(4-((1H-indazol-5-yl)amino)quinazolin-2-yl)phenoxy)-N-isopropylacetamide]
remaining binding at 10 µM (CAMK1D): 100% | remaining binding at 10 µM (CAMK4): 100% | remaining binding at 10 µM (WNK3): 82% | remaining binding at 10 µM (PIK3CD): 41% | remaining binding at 10 µM (CDC2L5): 100% | remaining binding at 10 µM (PRP4): 15% | remaining binding at 10 µM (MKK7): 73% | absolute bioavailability [1]: 37% | remaining binding at 10 µM (RET): 88% | remaining binding at 10 µM (PKAC-alpha): 100% | remaining binding at 10 µM (PRKG2): 88% | remaining binding at 10 µM (TGFBR1): 59% | remaining binding at 10 µM (CDK2): 93% | remaining binding at 10 µM (MST1): 82% | remaining binding at 10 µM (RIPK5): 64% | remaining binding at 10 µM (MEK5): 63% | remaining binding at 10 µM (FGFR3): 72% | remaining binding at 10 µM (CAMK2G): 99% | CK2α and CK2α’ inhibited less than ROCK2 (POC) (CSNK2A1; 10 μM): 10 fold | remaining binding at 10 µM (CSNK2A1; CSNK2A1, read-out: Percent Control): 0.5% | remaining binding at 10 µM (MAP3K4): 83% | remaining binding at 10 µM (PLK2): 94% | remaining binding at 10 µM (FLT3(D835Y)): 46% | remaining binding at 10 µM (MARK1): 100% | remaining binding at 10 µM (ACVR2A): 99% | remaining binding at 10 µM (FLT3(N841I)): 19% | remaining binding at 10 µM (FYN): 61% | remaining binding at 10 µM (ALK(L1196M)): 95% | remaining binding at 10 µM (DYRK1A): 72% | remaining binding at 10 µM (WEE2): 82% | remaining binding at 10 µM (TSSK1B): 76% | remaining binding at 10 µM (CLK1): 57% | remaining binding at 10 µM [2]: 86% | remaining binding at 10 µM (GRK7): 80% | remaining binding at 10 µM (GCN2(Kin.Dom.2,S808G)): 100% | remaining binding at 10 µM (LZK): 100% | remaining binding at 10 µM (HCK): 95% | remaining binding at 10 µM (YANK3): 76% | remaining binding at 10 µM (ERBB2): 81% | remaining binding at 10 µM (ERK4): 100% | remaining binding at 10 µM (CSNK1A1): 80% | remaining binding at 10 µM (NEK5): 83%
